# Results as given in patent publication US20170087149A9, “TREATMENT FOR […]” (priority 2013, published 2017).
# System: collapsing trachea
# Experiment: Treatment of collapsing trachea in dogs (case reports)
# Assay type: in vivo, dog
# Settings: Pomeranian
# Protocol: Upon presentation, the patient had severe dyspnea and coughing.
# Oxycodone sustained release was prescribed, 10 mg twice daily. […] When appetite returned (along with resumed coughing) the patient's dosage was adjusted to 2.5 mg twice daily (cutting the 10 mg tablets in quarters). […] On two occasions when the beginning of a cough was observed, a single additional 2.5 mg tablet was administered, followed by return to the original twice-daily dosing regimen.
# The treatment described in Example 1 has been successfully repeated in two additional dogs diagnosed as having collapsing trachea.
compound,measurement,setting,value
"O=C(O)C(O)C(O)C(=O)O.Oc1ccc2c(c1)[C@@]13CCCC[C@@]1(O)[C@@H](C2)N(CC1CCC1)CC3 [Torbutrol, butorphenol]","cough (prior treatment, history)",history before presentation,had been controlling the cough
same,"exercise tolerance and panting (prior treatment, history)",history before presentation,highly intolerant to exercise (to the point of having to be carried) and continuously panting
same,response at presentation (refractory stage),severe intrathoracic collapsing trachea at presentation,stopped responding
